Measurements as given in patent US11866433B2, “Diarylthiohydantoin compound as androgen receptor antagonist” (CHIA TAI TIANQING PHARMACEUTICAL GROUP CO., LTD., priority 2017, dated 2024).

Key:
Assay type in all cases: in vivo
[1] = Pharmacokinetic test of Compound 10 in mice (intravenous and intragastric); conditions: mouse, plasma, male CD-1 mice; for AUC(0-inf): read-out: Curve Area (0-inf) AUC0-inf; for AUC(0-t): read-out: Curve Area (0-t) AUC0-last; for half-life: read-out: Half Life T1/2 (converted)
Method: Taking male CD-1 mice as test animals, drug concentrations in plasma at different moments after intravenous and intragastric administration of Compound 10 to the mice were determined by the LC/MS/MS method. The pharmacokinetic behavior of Compound 10 in mice was investigated and its pharmacokinetic profile was evaluated.
2.2 Test Animals: Four healthy adult male CD-1 mice were divided into 2 groups, with 2 mice in each group, according to the principle of similar body weight. The animals were purchased from Shanghai Super-BK Laboratory Animal Co., Ltd., with Animal Production License No.: SCXK (Shanghai) 2013-0016.
2.3 Drug Preparation An appropriate amount of sample was weighed, and an appropriate amount of DMSO, PEG400 and water were added successively at a volume ratio of 10:40:50. After stirring and ultrasonic processing, the resulting mixture reached a clear solution state of 0.4 mg/mL for intravenous administration.
An appropriate amount of sample was weighed, and dissolved in a solution of 0.5% CMC+0.2% Tween 80. After stirring and ultrasonic processing, the resulting mixture reached a uniform suspension state of 0.4 mg/mL for intragastric administration.
Four male CD-1 mice were divided into 2 groups, and fasted overnight. The first group was intravenously administered at an administration volume of 2.5 mL/kg in a dose of 1 mg/kg; and the second group was intragastrically administered at an administration volume of 5 mL/kg in a dose of 2 mg/kg.
(§1) After Compound 10 was intravenously administered to the male CD-1 mice, 30 μL of blood was collected at 0.0833, 0.25, 0.5, 1, 2, 4, 8, and 24 h respectively, and placed in test tubes containing 2 μL of EDTA-K2. After Compound 10 was administered to the intragastric administration group, 30 μL of blood was collected at 0.25, 0.5, 1, 2, 4, 8, and 24 h respectively, and placed in test tubes containing 2 μL of EDTA-K2. The test tubes were centrifuged at 3000 g for 15 min to separate the plasma, which was stored at −60° C. The animals were allowed to eat 2 hours after administration.
(§2) After intravenous and intragastric administration to the mice, the content of the test compound in plasma was determined by the LC/MS/MS method. The linear range of the method was 2.00-6000 nmol/L; and the plasma samples were analyzed after the treatment with acetonitrile precipitated protein.

[2] = Tissue distribution test of Compound 27 and Compound 10 (plasma and brain); conditions: intragastric 2 mg/kg, 2 h after administration, male CD-1 mice
Method: Taking male CD-1 mice as test animals, drug concentrations in plasma and brain after intragastric administration of Compound 27 and Compound 10 to the mice were determined by the LC/MS/MS method, respectively.
2.2 Test Animals: Six healthy adult male CD-1 mice were divided into 2 groups, with 3 mice in each group, according to the principle of similar body weight. The animals were purchased from Shanghai Super-BK Laboratory Animal Co., Ltd., with Animal Production License No.: SCXK (Shanghai) 2013-0016.
An appropriate amount of sample was weighed, and an appropriate amount of DMSO, PEG400 and water were added successively at a volume ratio of 10:40:50. After stirring and ultrasonic processing, the resulting mixture reached a clear solution state of 0.4 mg/mL.
Six male CD-1 mice were divided into 2 groups, fasted overnight, and intragastrically administered at an administration volume of 5 mL/kg in a dose of 2 mg/kg.
(§3) After Compound 27 and Compound 10 were intragastrically administered to the male CD-1 mice, 100 μL of blood was collected by cardiac puncture at 2 h, placed in a test tube containing 2 μl of EDTA-K2, and centrifuged at 3000 g for 15 min to separate 50 μL of plasma, which was stored at −60° C. Meanwhile, brain tissues were collected, washed, then homogenized with 5-fold 15 mM PBS/MeOH (v:v, 2:1), and stored at −60° C. The animals were allowed to eat 2 hours after administration.
(§4) After intragastric administration to the mice, the content of the test compound in plasma and brain was determined by the LC/MS/MS method. The linear range of the method was 2.00-6000 nmol/L; and the plasma samples were analyzed after the treatment with acetonitrile precipitated protein.

[3] = Pharmacokinetic test of Compound 35 and Compound 58 in mice (intravenous and intragastric); conditions: mouse, plasma, male CD-1 mice; for AUC(0-t): read-out: Curve Area (0-t) AUC0-last; for Cmax: read-out: Plasma Concentration Cmax; for Tmax: read-out: Time to Peak Tmax; for Vd: read-out: Apparent Volume of Distribution Vdss; for clearance: read-out: Clearance Rate CI; for AUC(0-inf): read-out: Curve Area (0-inf) AUC0-inf; for half-life: read-out: Half Life T1/2 (converted)
Method: With reference to Example 76, the pharmacokinetic behaviors of Compound 35 and Compound 58 in mice were investigated and their pharmacokinetic profiles were evaluated.
2. Experimental Protocol Refers to Example 76.
as §1, with “Compound 35 and Compound 58 were” for “Compound 10 was”, “was cross-collected” for “was collected”, “8, 24,” for “8,”, “and 48” for “and 24”, “tubes was” for “tubes were”, “eat 4” for “eat 2”
as §2

[4] = Tissue distribution test of Compound 35 and Compound 58 (plasma and brain); conditions: intragastric 2 mg/kg, 4 h after administration, male CD-1 mice; for Kp at 4 h / concentration at 4 h: mouse, oral; for Kp at 4 h: brain / plasma, read-out: Brain to Blood Ratio; for concentration at 4 h: plasma
Method: Taking male CD-1 mice as test animals, drug concentrations in plasma and brain after intragastric administration of Compound 35 and Compound 58 to the mice were determined by the LC/MS/MS method, respectively.
2.2 Test Animals: Two healthy adult male CD-1 mice. The animals were purchased from Shanghai Sippr-BK Laboratory Animal Co., Ltd.
An appropriate amount of sample was weighed, and added in a solution of 0.5% CMC+0.2% Tween in water. After stirring and ultrasonic processing, the resulting mixture reached a suspension state of 0.4 mg/mL.
Two male CD-1 mice were fasted overnight, and intragastrically administered at an administration volume of 5 mL/kg in a dose of 2 mg/kg.
as §3, with “Compound 35” for “Compound 27”, “Compound 58” for “Compound 10”, “at 4” for “at 2”, “separate 30” for “separate 50”, “with 9-fold” for “with 5-fold”, “eat 4” for “eat 2”
as §4

[5] = po, intragastric administration, 2 mg/kg
[6] = intravenous administration, 1 mg/kg

SMILES | AUC(0-t) [3, 5] [µM·h] | Cmax [3, 5] [µM] | Tmax [3, 5] [h] | Vd [3, 6] [L/kg] | clearance [3, 6] [mL/min/kg] | AUC(0-inf) [3, 6] [µM·h] | AUC(0-t) [3, 6] [µM·h] | half-life [3, 6] [h] | Concentration in Brain [4] [nmol/kg] | Kp at 4 h [4] | concentration at 4 h [4] [µM] | also measured
CCc1nc(OCCO)c2cc(N3C(=S)N(c4ccc(C#N)c(C(F)(F)F)c4)C(=O)C3(C)C)cc(F)c2n1 [Compound 10] |  |  |  |  |  |  |  |  |  |  |  | bioavailability [1, 5]: 41.7%; AUC(0-inf) [1, 5]: 27.9 µM·h; AUC(0-t) [1, 5]: 26.3 µM·h; half-life [1, 5]: 5.5 h; Cmax ([1]; po, intragastric administration, 2 mg/kg, read-out: Plasma Concentration Cmax): 2.77 µM; Tmax ([1]; po, intragastric administration, 2 mg/kg, read-out: Time to Peak Tmax): 4 h; Vd ([1]; intravenous administration, 1 mg/kg, read-out: Apparent Volume of Distribution Vdss): 0.384 L/kg; clearance ([1]; intravenous administration, 1 mg/kg, read-out: Clearance Rate CI): 0.912 mL/min/kg; AUC(0-inf) [1, 6]: 33.5 µM·h; AUC(0-t) [1, 6]: 32.3 µM·h; half-life [1, 6]: 4.88 h; Concentration in Brain [2]: 67.38 ± 44.5 nmol/kg; Kp at 2 h ([2]; mouse, brain / plasma, oral, read-out: Brain to Blood Ratio): 0.0133 ± 0.0006; concentration at 2 h ([2]; mouse, plasma, oral): 5 ± 3.16 µM
CCc1cc(=O)n2cc(N3C(=S)N(c4ccc(C#N)c(C(F)(F)F)c4)C(=O)C3(C)C)cc(F)c2n1 [Compound 35] | 110 | 5.78 | 6 | 0.667 | 0.189 | 194 | 58.7 | 45.1 | 281 | 0.0742 | 4.12 | bioavailability [3, 5]: 94%
CCc1cc(=O)n2cc(N3C(=S)N(c4ccc(C#N)c(Cl)c4)C(=O)C3(C)C)cc(F)c2n1 [Compound 58] | 370 | 12.8 | 8 | 0.248 | 0.0794 | 447 | 271 | 36.6 | 265 | 0.0322 | 8.26 | 
